Consider one compound from PMC7375240, “Covalent Inhibitors Allosterically Block the Activation of Rho Family Proteins and Suppress Cancer Cell Invasion” (Advanced Science, 2020).

The target in test [1] is T1, Cdc42 (Homo sapiens, UniProt P60953).
T1 construct: full length, His6-tagged (pET28a), E. coli BL21(DE3)
The test is described as follows: pull-down of Cdc42 with its GEF. It counts as binding. Conditions: Cdc42-GEF interaction (GEF probably human intersectin1 […]-1571), pH […].

Test [2] addresses T2, Rac1 (Homo sapiens, UniProt P63000).
T2 construct: full length, His6-tagged (pET28a), E. coli BL21(DE3)
Description: pull-down of Rac1 with its GEF. Conditions: Rac1-GEF interaction (GEF probably murine Tiam1 […]-1406), pH […]. It counts as binding.

T1 sequence (P60953 whole entry): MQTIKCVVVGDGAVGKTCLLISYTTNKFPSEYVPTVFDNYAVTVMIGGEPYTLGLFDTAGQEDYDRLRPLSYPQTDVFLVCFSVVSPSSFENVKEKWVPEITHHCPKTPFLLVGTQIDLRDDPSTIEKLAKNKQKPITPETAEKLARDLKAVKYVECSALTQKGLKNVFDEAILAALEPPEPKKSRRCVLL

As to `C=CCOC(=O)C1=CS(=O)(=O)c2ccccc21` [DC-RC-063, DC-Rhoin], the “pull-down of Cdc42 with its GEF” value in test [1] was “selectively inhibited the interactions between Rho family proteins (RhoA, Cdc42, and Rac1)”. In addition, the “pull-down of Rac1 with its GEF” value in test [2] is “selectively inhibited the interactions between Rho family proteins (RhoA, Cdc42, and Rac1)”.
